# Biological target: PD-1/PD-L1 (Homo sapiens (Human), UniProt Q9NZQ7)
# Test: PD-1/PD-L1 biochemical protein-protein interaction assay (ALPHA)
# Details: 0.3 nM His tagged PD-L1, 2.5 nM biotinylated Fc-PD-1, 60 minutes at 25° C., read-out: IC50 PD-L1-PD1
# Chain of PD-1/PD-L1 (Q9NZQ7 19-238): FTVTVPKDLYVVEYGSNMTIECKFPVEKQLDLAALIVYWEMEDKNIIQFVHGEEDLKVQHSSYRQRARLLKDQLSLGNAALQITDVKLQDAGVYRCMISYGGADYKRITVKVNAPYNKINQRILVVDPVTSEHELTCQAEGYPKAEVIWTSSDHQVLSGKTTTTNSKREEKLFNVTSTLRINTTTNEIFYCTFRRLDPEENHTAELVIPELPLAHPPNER
row,IC50 [nM],SMILES
1,0.11,COC[C@@H]1CC[C@H]1NCc1ncc(-c2cccc(-c3cccc(-c4cnc(CNC[C@@H]5CCC(=O)N5)c(OC)n4)c3Cl)c2Cl)nc1OC [compound 215]
2,0.14,COc1nc(-c2cccc(-c3cccc(-c4cnc(CNCC5(S(C)(=O)=O)CC5)c(OC)n4)c3Cl)c2Cl)cnc1CNC[C@@H]1CCC(=O)N1 [compound 218]
3,0.19,COc1nc(-c2cccc(-c3cccc(-c4cnc(CNC[C@@H]5C[C@H]5c5cccnc5)c(OC)n4)c3Cl)c2Cl)cnc1CNC[C@@H]1CCC(=O)N1 [compound 219]
4,0.291,COc1nc(-c2cccc(-c3cccc(-c4cnc(CNC5CCC([S+](C)[O-])C5)c(OC)n4)c3Cl)c2Cl)cnc1CNC[C@@H]1CCC(=O)N1 (stereo partly shown) [compound 222]
5,0.584,COc1nc(-c2cccc(-c3cccc(-c4cnc(CN[C@@H]5CCOC[C@H]5C)c(OC)n4)c3Cl)c2Cl)cnc1CNC[C@@H]1CCC(=O)N1 [compound 223]
6,0.288,COCCC1CN(Cc2ncc(-c3cccc(-c4cccc(-c5cnc(CNC[C@@H]6CCC(=O)N6)c(OC)n5)c4Cl)c3Cl)nc2OC)C1 [compound 225]
7,0.474,CC[C@@H]1OCC[C@H]1NCc1ncc(-c2cccc(-c3cccc(-c4cnc(CNC[C@@H]5CCC(=O)N5)c(OC)n4)c3Cl)c2Cl)nc1OC [compound 226]
8,0.136,COc1nc(-c2cccc(-c3cccc(-c4cnc(CNC[C@@H]5CCC(=O)N5)c(OC)n4)c3Cl)c2Cl)cnc1CNCC1CCN(C(C)=O)C1 (stereo partly shown) [compound 227]
9,0.229,COc1nc(-c2cccc(-c3cccc(-c4cnc(CN5CC[C@@H](C)[C@@H](O)C5)c(OC)n4)c3Cl)c2Cl)cnc1CNC[C@@H]1CCC(=O)N1 [compound 229]
10,0.331,COc1nc(-c2cccc(-c3cccc(-c4cnc(CN5C[C@@H]6CCC[C@]6(CO)C5)c(OC)n4)c3Cl)c2Cl)cnc1CNC[C@@H]1CCC(=O)N1 [compound 230]
11,0.064,COc1nc(-c2cccc(-c3cccc(-c4cnc(CN5CC[C@@H](O)[C@H](C)C5)c(OC)n4)c3Cl)c2Cl)cnc1CNC[C@@H]1CCC(=O)N1 [compound 231]
12,0.312,COc1nc(-c2cccc(-c3cccc(-c4cnc(CN5CCC6(CCOC6=O)C5)c(OC)n4)c3Cl)c2Cl)cnc1CNC[C@@H]1CCC(=O)N1 (stereo partly shown) [compound 232]
13,0.451,CCO[C@H]1C[C@H](NCc2ncc(-c3cccc(-c4cccc(-c5cnc(CNC[C@@H]6CCC(=O)N6)c(OC)n5)c4Cl)c3Cl)nc2OC)C1 [compound 233]
14,0.088,COc1nc(-c2cccc(-c3cccc(-c4cnc(CN5CC6(CCOC6)C5)c(OC)n4)c3Cl)c2Cl)cnc1CNC[C@@H]1CCC(=O)N1 [compound 234]
15,0.106,COc1nc(-c2cccc(-c3cccc(-c4cnc(CNC[C@@H]5CCC(=O)N5)c(OC)n4)c3Cl)c2Cl)cnc1CNCCC1CNC(=O)C1 (stereo partly shown) [compound 235]
16,0.297,COCC(NCc1ncc(-c2cccc(-c3cccc(-c4cnc(CNC[C@@H]5CCC(=O)N5)c(OC)n4)c3Cl)c2Cl)nc1OC)C1CC1 (stereo partly shown) [compound 238]
17,0.11,COc1nc(-c2cccc(-c3cccc(-c4cnc(CNC[C@H]5C[C@@H](O)C5)c(OC)n4)c3Cl)c2Cl)cnc1CNC[C@H]1C[C@@H](O)C1 [compound 243]
18,0.21,COc1nc(-c2cccc(-c3cccc(-c4cnc(CNC[C@@H]5COC(=O)N5)c(OC)n4)c3Cl)c2Cl)cnc1CNC[C@@H]1CCC(=O)N1 [compound 246]
19,2.67,COCC(NCc1ncc(-c2cccc(-c3cccc(-c4cnc(CNC[C@@H]5CCC(=O)N5)c(OC)n4)c3Cl)c2Cl)nc1OC)C(F)(F)F (stereo partly shown) [compound 249]
20,0.07,COc1nc(-c2cccc(-c3cccc(-c4cnc(CN5CCN[C@H](C)C5)c(OC)n4)c3Cl)c2Cl)cnc1CNC[C@@H]1CCC(=O)N1 [compound 251]
21,0.09,COc1nc(-c2cccc(-c3cccc(-c4cnc(CN5CC(O)(CO)C5)c(OC)n4)c3Cl)c2Cl)cnc1CNC[C@@H]1CCC(=O)N1 [compound 253]

# Continued, compound first:
row,SMILES,IC50 [nM]
1,COc1nc(-c2cccc(-c3cccc(-c4cnc(CNC[C@@H]5CCC(=O)N5)c(OC)n4)c3Cl)c2Cl)cnc1CNCCn1ccc(C)n1 [compound 214],0.26
2,COc1nc(-c2cccc(-c3cccc(-c4cnc(CN5CC[C@@H]6CC[C@@H](O)[C@@H]65)c(OC)n4)c3Cl)c2Cl)cnc1CNC[C@@H]1CCC(=O)N1 [compound 216],0.21
3,COc1nc(-c2cccc(-c3cccc(-c4cnc(CNC5CC(CC(N)=O)C5)c(OC)n4)c3Cl)c2Cl)cnc1CNC[C@@H]1CCC(=O)N1 (stereo partly shown) [compound 217],0.14
4,COc1nc(-c2cccc(-c3cccc(-c4cnc(CNC[C@@H]5CCC(=O)N5)c(OC)n4)c3Cl)c2Cl)cnc1CNCC1CC1CC#N (stereo partly shown) [compound 220],0.36
5,COC[C@H]1C[C@@H](NCc2ncc(-c3cccc(-c4cccc(-c5cnc(CNC[C@@H]6CCC(=O)N6)c(OC)n5)c4Cl)c3Cl)nc2OC)C1 [compound 221],0.227
6,COc1nc(-c2cccc(-c3cccc(-c4cnc(CN5C[C@@H](OC)C[C@H]5CO)c(OC)n4)c3Cl)c2Cl)cnc1CNC[C@@H]1CCC(=O)N1 [compound 224],0.393
7,COc1nc(-c2cccc(-c3cccc(-c4cnc(CNC[C@H]5C[C@@H](OC)C5)c(OC)n4)c3Cl)c2Cl)cnc1CNC[C@@H]1CCC(=O)N1 [compound 228],0.168
8,COc1nc(-c2cccc(-c3cccc(-c4cnc(CNC[C@@H]5CCC(=O)N5)c(OC)n4)c3Cl)c2Cl)cnc1CNCCC1CCCO1 (stereo partly shown) [compound 236],0.064
9,COc1nc(-c2cccc(-c3cccc(-c4cnc(CNC(CCO)C5CC5)c(OC)n4)c3Cl)c2Cl)cnc1CNC[C@@H]1CCC(=O)N1 (stereo partly shown) [compound 237],0.064
10,COc1nc(-c2cccc(-c3cccc(-c4cnc(CN5CC(F)(CO)C5)c(OC)n4)c3Cl)c2Cl)cnc1CN1CC(F)(CO)C1 [compound 239],0.3
11,COc1nc(-c2cccc(-c3cccc(-c4cnc(CN5CC(O)(CO)C5)c(OC)n4)c3Cl)c2Cl)cnc1CN1CC(O)(CO)C1 [compound 240],0.09
12,COc1nc(-c2cccc(-c3cccc(-c4cnc(CN[C@H]5C[C@@](C)(O)C5)c(OC)n4)c3Cl)c2Cl)cnc1CN[C@H]1C[C@@](C)(O)C1 [compound 241],0.27
13,COc1nc(-c2cccc(-c3cccc(-c4cnc(CNC[C@H]5C[C@H](O)C5)c(OC)n4)c3Cl)c2Cl)cnc1CNC[C@H]1C[C@H](O)C1 [compound 242],0.14
14,COc1nc(-c2cccc(-c3cccc(-c4cnc(CNC[C@@H]5CC(C)(C)C(=O)N5)c(OC)n4)c3Cl)c2Cl)cnc1CNC[C@@H]1CC(C)(C)C(=O)N1 [compound 244],0.08
15,COc1nc(-c2cccc(-c3cccc(-c4cnc(CNC[C@@H]5CC(C)(C)C(=O)N5)c(OC)n4)c3Cl)c2Cl)cnc1CNC[C@@H]1CCC(=O)N1 [compound 245],0.15
16,COc1nc(-c2cccc(-c3cccc(-c4cnc(CNC(CO)CCF)c(OC)n4)c3Cl)c2Cl)cnc1CNC[C@@H]1CCC(=O)N1 (stereo partly shown) [compound 247],0.13
17,COc1nc(-c2cccc(-c3cccc(-c4cnc(CNC(CO)CF)c(OC)n4)c3Cl)c2Cl)cnc1CNC[C@@H]1CCC(=O)N1 (stereo partly shown) [compound 248],0.18
18,COc1nc(-c2cccc(-c3cccc(-c4cnc(CN5CCN[C@@H](C)C5)c(OC)n4)c3Cl)c2Cl)cnc1CNC[C@@H]1CCC(=O)N1 [compound 250],0.12
19,COc1nc(-c2cccc(-c3cccc(-c4cnc(CN5CC(F)(CO)C5)c(OC)n4)c3Cl)c2Cl)cnc1CNC[C@@H]1CCC(=O)N1 [compound 252],0.06

# Source: patent US10710986B2, “PD-1/PD-L1 inhibitors” (Gilead Sciences, Inc., priority 2018, dated 2020)
